Consider one molecule from patent publication US20240361338A1, “DIAGNOSIS AND TREATMENT OF ECTOPIC ENDOMETRIOSIS” (FERRING B.V., priority 2021, published 2024).

For one assay, the system named is ectopic EMSCs. Kind of assay: BrdU cell proliferation assay on E-MSCs. It is filed as cell-based, human. The note with it: different concentrations, after 24 hours. How it is done:
FIG. 3: Quinagolide effect on EMSCs apoptosis and proliferation. A: Quinagolide concentration-response curve on ectopic EMSCs in both apoptosis (N=1) and proliferation (N=2) assays. B: Effect of two selected quinagolide doses (10^−5 and 10^−7M) on HUVECs (N=1) and ectopic E-MSCs (N=3) apoptosis and proliferation assays (N=2). Data are represented as mean±SD of the indicated number of experiments and normalized to untreated cells (Control). Cells were plated in growth medium at a concentration of 2,500 HUVECs/well and 3,000 E-MSCs/well in a 96-multiwell plate. The day after quinagolide was added to the growth medium at different concentrations after 24 hours. Deoxyribonucleic acid synthesis was detected as incorporation of 5-bromo-2-deoxyuridine (BrdU) into the cellular DNA after 48 hours from cell plaiting, using an enzyme-linked assay kit (Chemicon). Untreated cells were used as control. Data are expressed as the mean±standard deviation (SD) of the media of absorbance of at least three different experiments and normalized to control.

Assay [1] has as its system eutopic E-MSCs. Kind of assay: Endothelial differentiation (CD31) of eutopic E-MSCs in co-culture with HUVECs. It is filed as cell-based, human. Conditions: 100 nM, 24-h treatment, 48 h co-culture with HUVECs.
Another assay has as its system AKT. Kind of assay: Western blot of P-AKT in E-MSC-HUVEC cocultures. It is filed as cell-based, human. The note with it: 100 nM quinagolide 24 h. As for the experimental part:
FIG. 6: Quinagolide effect on AKT activation. A: Representative western blot analysis and quantification of AKT levels in eutopic and ectopic EMSCs treated for 48 h with 100 nM quinagolide (Q), compared to untreated cells (CTL). B: Representative western blot analysis and quantification of P-AKT levels, normalized to AKT expression, in eutopic and ectopic EMSCs treated for 48 h with 100 nM quinagolide (Q), respect to untreated cells (CTL). C: Representative western blot analysis and quantification of P-AKT levels in HUVECs, ectopic […] basal), and in […] co-culture with HUVECs, treated or not for 24 h with 100 nM quinagolide (Q100 nM). Data are represented as mean±SD of at least two independent experiments, performed on different EMSC lines, and normalized to Vinculin and to untreated cells (CTL). One-way ANOVA was performed: *=p<0.05 and **=p<0.001 vs CTL. Cell pellets were lysed at 4° C. for 15 minutes in RIPA buffer supplemented with protease and phosphatase inhibitors cocktail and PMSF (Sigma-Aldrich). Proteins were quantified using Bradford solution following the manufacturer procedures (Bio-Rad Inc., Berkely, CA, USA) and aliquots of cell lysates containing 50 μg of proteins were run on 4-12% Mini-Protean TGX Stain-Free Gels (Bio-Rad) under reducing conditions and transferred onto PVDF membrane filters using the iBLOT2 system (Life Technologies). […]
For orientation: Immunoblotting shows a protein as a band on a membrane.

The target of another assay is dopamine D2 (Homo sapiens, UniProt P14416). The note with it: Igbokwe et al, 2009; read-out: EC50 as D2 agonist; cited from earlier work.
The test system of assay [2] is eutopic E-MSCs. Kind of assay: Matrigel transwell invasion assay, eutopic E-MSCs. The note with it: 100 nM, 48 h, vs untreated. It is filed as cell-based, human. As for the experimental part:
FIG. 4: Quinagolide effect on EMSCs invasion. A and B: Representative micrographs (A) and quantification (B) of quinagolide effect (100 nM) on eutopic and ectopic (both ovarian and peritoneal) EMSCs invasion (original magnification: ×100). C: Concentration response effect of quinagolide treated ectopic EMSCs invasion. D and E: Quantification (D) and representative micrographs (E) (original magnification: ×100) of invasion assays performed on ectopic EMSCs (both ovarian and peritoneal), treated with 100 nM quinagolide (Q100 nM), 5 μM spiperone(S) or a combination of quinagolide and spiperone (S+Q100 nM). All invasion data are represented as mean±SD of at least three independent experiments, performed on different EMSC lines, and normalized to untreated cells (CTL). One-way ANova was performed: *=p<0.05 and **=p<0.001 vs CTL. Quinagolide powder (provided by Ferring Pharmaceuticals) was stored at 4° C. and resuspended in dimethylsulphoxide (DMSO) to a stock solution of 1 mM immediately before use. Spiperone powder (Sigma-Aldrich) was resuspended in water to a stock concentration of 1 mM and stored at −20° C. […] At least five pictures per transwell were acquired (original magnification: 100×), and the percentage of transwell area covered by invaded EMSCs was quantitatively measured by ImageJ software.

pEC50: −log10 of the molar value.

dopamine D2, sequence (P14416 1-414 isoform P14416-2): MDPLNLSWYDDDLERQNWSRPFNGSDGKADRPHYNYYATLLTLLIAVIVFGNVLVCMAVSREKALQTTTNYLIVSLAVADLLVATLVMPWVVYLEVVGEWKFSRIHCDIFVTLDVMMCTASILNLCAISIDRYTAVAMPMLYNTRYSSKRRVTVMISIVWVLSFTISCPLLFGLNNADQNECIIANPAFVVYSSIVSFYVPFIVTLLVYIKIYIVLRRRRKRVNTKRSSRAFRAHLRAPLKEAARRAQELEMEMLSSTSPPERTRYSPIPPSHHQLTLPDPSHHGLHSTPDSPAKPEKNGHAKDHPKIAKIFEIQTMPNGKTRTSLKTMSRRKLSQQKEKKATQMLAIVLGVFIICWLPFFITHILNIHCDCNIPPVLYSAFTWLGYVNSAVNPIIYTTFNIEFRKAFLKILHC

Turning to `CCCN1C[C@@H](NS(=O)(=O)N(CC)CC)C[C@@H]2Cc3c(O)cccc3C[C@H]21` [quinagolide, N,N-diethyl-N′-[(3S,4aS,10aR)-6-hydroxy-1-propyl-1,2,3,4,4a,5,10,10a-octahydrobenzo[g]quinolin-3-yl]sulfamide], in the assay with ectopic EMSCs, the “proliferation of E-MSCs (BrdU)” value was “did not affect proliferation”. For the same molecule, the “percentage of CD31 expressing E-MSCs after co-culture” value with eutopic E-MSCs [1] was “no significant alteration”. For the same molecule, in the assay on AKT, the AKT phosphorylation entry is given as “reduced”. Further, the pEC50 at dopamine D2 was 10.24. In the assay with eutopic E-MSCs [2], the “invasion of eutopic E-MSC lines” value was “significantly reduced”.

The pEC50 is the negative decadic logarithm of the EC50, by convention in mol/L.
